According to ChEMBL document CHEMBL3525943, “Regiospecific and stereospecific triangulation of the structures of metabolites formed by sequential metabolism at multiple prochiral centers” (Drug Metab Dispos, 2012):

Legend:
[1] = Drug excretion in male Sprague-Dawley rat urine treated with [14C]-AMG 221 at 2 mg/kg, po measured over 24 hrs by LC-MS/HPLC radiometric analysis; format: ADME, organism-based; parameters: dose 2 mg/kg, route oral; settings: in vivo
[2] = Retention time of the compound in Sprague-Dawley rat urine treated with [14C]-AMG 221 at 2 mg/kg, po measured over 24 hrs by LC-MS/HPLC radiometric analysis; format: ADME, organism-based; parameters: dose 2 mg/kg, route oral; settings: in vivo
[3] = Drug excretion in female Sprague-Dawley rat urine treated with [14C]-AMG 221 at 2 mg/kg, po measured over 24 hrs by LC-MS/HPLC radiometric analysis; format: ADME, organism-based; parameters: dose 2 mg/kg, route oral; settings: in vivo
[4] = Drug level in Sprague-Dawley rat urine treated with [14C]-AMG 221 at 2 mg/kg, po measured over 24 hrs by LC-MS/HPLC radiometric analysis; format: ADME, organism-based; parameters: dose 2 mg/kg, route oral; settings: in vivo
[5] = test system: Liver microsome; assay: Drug level in rat liver microsomes treated with (S)-2-((1S,2S,4R,6R)-6-hydroxybicyclo[2.2.1]heptan-2-ylamino)-5-isopropyl-5-methylthiazol-4(5H)-one at 20 uM preincubated for 5 mins followed by NADPH addition measured after 60 mins by LC-MS/MS analysis; format: ADME; settings: 1 h
[6] = Retention time of the compound in Beagle dog urine treated with [14C]-AMG 221 at 2 mg/kg, po measured over 24 hrs by LC-MS/HPLC radiometric analysis; format: ADME, organism-based, Canis lupus familiaris; parameters: dose 2 mg/kg, route oral; settings: in vivo
[7] = test system: Liver microsome; assay: Retention time of the compound in rat liver microsomes treated with (S)-2-((1S,2S,4R)-bicyclo[2.2.1]heptan-2-ylamino)-5-(2-hydroxypropan-2-yl)-5-methylthiazol-4(5H)-one at 20 uM preincubated for 5 mins followed by NADPH addition measured after 60 mins by LC-MS/MS analysis; format: ADME; settings: 1 h
[8] = Drug excretion in female Sprague-Dawley rat feces treated with [14C]-AMG 221 at 2 mg/kg, po measured over 24 hrs by LC-MS/HPLC radiometric analysis; format: ADME, organism-based; parameters: dose 2 mg/kg, route oral; settings: in vivo
[9] = Drug excretion in male Sprague-Dawley rat feces treated with [14C]-AMG 221 at 2 mg/kg, po measured over 24 hrs by LC-MS/HPLC radiometric analysis; format: ADME, organism-based; parameters: dose 2 mg/kg, route oral; settings: in vivo
[10] = test system: Rattus norvegicus; assay: Total drug recovery in female Sprague-Dawley rat treated with [14C]-AMG 221 at 2 mg/kg, po measured over 48 hrs by liquid scintillation counting analysis; format: ADME, organism-based; parameters: dose 2 mg/kg, route oral; settings: in vivo
[11] = Drug level in Sprague-Dawley rat feces treated with [14C]AMG221 at 2 mg/kg, po measured over 24 hrs by LC-MS/HPLC radiometric analysis; format: ADME, organism-based; parameters: dose 2 mg/kg, route oral; settings: in vivo
[12] = Retention time of the compound in Sprague-Dawley rat feces treated with [14C]-AMG 221 at 2 mg/kg, po measured over 48 hrs by LC-MS/HPLC radiometric analysis; format: ADME, organism-based; parameters: dose 2 mg/kg, route oral; settings: in vivo

Row | SMILES | Drug excretion [1] | Retention_time [2] | Drug excretion [3] | Drug metabolism [4] | Drug metabolism [5] | Retention_time [6] | Retention_time [7] | Drug excretion [8] | Drug excretion [9] | Drug recovery [10] | Drug metabolism [11] | Retention_time [12]
1 | C[C@@H](CO)[C@]1(C)SC(N[C@H]2C[C@H]3C[C@@H]2[C@H](O)C3)=NC1=O | 8.3% | 15.1 min | 24% | metabolite_detected | metabolite_detected | 15.1 min | 15.7 min | 24% | 8.3% | 0.9% | – | –
2 | CC(C)[C@]1(C)SC(N[C@H]2C[C@H]3C[C@@H]2C[C@@H]3OS(=O)(=O)O)=NC1=O | – | – | – | – | – | – | – | 6% | metabolite_not_detected | 6% | metabolite_detected | 23.2 min
